# Measurements from patent US4030886A, “Saturation analysis” (The Radiochemical Centre Limited, priority 1973, dated 1977).
# Values joined by “and” are separate entries in the source; they are usually repeats but may differ in a detail not shown here. Equal values may be shown once.
# What was measured:
# [1] = tested on: antiserum raised in rabbits against estriol-6-CMO-BSA; test: Assay for estriol using 2-(methylseleno)-ethylamine-Se75 conjugate of estriol-6CMO; type: binding, rabbit; conditions: 300 pg label, antiserum 1:200
# Description: Into each assay tube was dispensed 0.1M phosphate buffer containing 5% human serum (pH 7.0; 200 μl), antiserum raised in rabbits against estriol-6-CMO-BSA and diluted 1 : 200 in 0.1M phosphate buffer containing 5% human serum (200 μl), and 2-(methylseleno)-Ethylamine-Se 75 conjugate of estriol-6-CMO (300 pg; 18 Ci/m mol).
# [2] = molecular target: T1, transcortin (charcoal treated rabbit serum) (Oryctolagus cuniculus, UniProt P23775); test: Assay for cortisol using 2-methylseleno-1-dehydro-cortisol-21-acetate-Se75; type: binding; conditions: for Counts - BKG in 300 sec: 2.5 ng label
# T1 construct: charcoal treated rabbit serum; from tissue; host or cells: rabbit serum, charcoal treated
# T1 sequence (P23775 1-383): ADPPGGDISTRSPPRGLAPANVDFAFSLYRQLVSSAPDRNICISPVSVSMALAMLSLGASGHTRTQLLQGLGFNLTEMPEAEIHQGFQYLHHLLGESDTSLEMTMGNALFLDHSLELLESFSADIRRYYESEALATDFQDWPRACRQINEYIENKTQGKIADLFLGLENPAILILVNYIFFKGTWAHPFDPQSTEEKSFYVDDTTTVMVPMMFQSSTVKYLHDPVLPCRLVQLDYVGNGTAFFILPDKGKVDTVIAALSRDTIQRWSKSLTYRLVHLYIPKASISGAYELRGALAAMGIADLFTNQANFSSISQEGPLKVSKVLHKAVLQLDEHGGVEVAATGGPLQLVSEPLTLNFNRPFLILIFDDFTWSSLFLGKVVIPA
# Description: (§1) Into each glass assay tube was dispensed glycine buffer containing 1% sodium azide (pH 9.0; 5.5 ml), charcoal treated rabbit serum (50 μl), bis-2,2'-(21-acetoxy-1-dehydrocortisol)-diselenide-Se 75 (2.3 ng, sp. activity ca 6 Ci/m atom), and Sephadex G25 (1 g). […] The tubes were capped and rotated at room temperature for 1 hour using a blood cell suspension mixer. After this time an aliquot (1 ml) of the supernatant liquid was withdrawn from each tube and counted for 300 seconds using an NE8311 gamma counter.
# Into each glass assay tube was dispensed 0.05M phosphate buffer containing sodium azide 1% (pH 7.4; 6 ml), charcoal treated rabbit serum (50 μl), 2-methylseleno-1-dehydrocortisol-21-acetate-Se75) (2.5 ng; sp. activity ca 3 Ci/m atom), and Sephadex G25 (1 g).
# The assay procedure was identical with that described above.
# [3] = tested on: Antisera raised in rabbits to testosterone 3-carboxymethyloxime-BSA; test: Radioimmunoassay for testosterone, antiserum dilution curve; type: binding, rabbit; conditions: for % Bound: 25pg label per assay tube
# Description: Antisera were raised in rabbits to testosterone 3-carboxymethyloxime-BSA.
# SE75 labelled 2-methylseleno-1-dehydrotestosterone (specific activity 15-20 Ci/mmol) was prepared by base catalysed hydrolysis of 2-methylseleno 1-dehydrotestosterone acetate which is described in our prior patent specification.
# Antiserum dilution curves were set up in the usual way using antiserum and labelled testosterone as described above.
# Typical figures for the antiserum dilution curves when 25pg labelled testosterone was used per assay tube are: […]
# [4] = tested on: antiserum raised to digoxin; test: Dilution curve for 3-methylselenodigoxigenin; type: binding; conditions: for Mean Count: 200 μl supernatant
# Description: An antiserum dilution curve for 3-methylselenodigoxigenin-Se 75 (specific activity 16 Ci/m mol) in buffered saline (0.15M NaCl, 0.05M KH2 PO4, 0.1% Na N3, and 0.1% BSA) was made up at a concentration of 0.0228 n mol/ml. Dilutions of antiserum raised to digoxin were prepared in assay buffer at 1/50, 1/100, 1/200, 1/400, 1/500, 1/800, 1/1000. Tubes were set up in duplicate for total activity, blanks, and antiserum dilutions as follows: total activity, 50 μl ^75 Se compound and 250 μl assay buffers; blanks, 50 μl ^75 Se compound and 150 μl assay buffer; antiserum dilutions, 50 μl ^75 Se compound, 100 μl buffer and 50 μl antiserum. The tubes were incubated for 30 minutes after which 100 μl of charcoal (0.65 g Norit OL in 50 ml assay buffer + 1 gram BSA) was added to each tube except the totals. After 10 minutes incubation the tubes were centrifuged and a 200 μl sample of the supernatant was counted.
# [5] = molecular target: T2, Transcortin from rabbit serum (Oryctolagus cuniculus, UniProt P23775); test: CPB assay for cortisol using Se-75 labelled bis-2,2'-(1-dehydrocorticosterone)-diselenide; type: binding
# T2 construct: Transcortin from rabbit serum; from tissue; host or cells: rabbit serum
# T2 sequence (P23775 1-383): T1 sequence (P23775 1-383)
# Description: as §1
# Se-75 labelled bis-2,2'-(1-dehydrocorticosterone)-diselenide was prepared by base hydrolysis of Se75-labelled bis-2,2'-(21-acetoxy-1-dehydrocorticosterone) diselenide which is described in our U.S. Ser. No. 426,695.
# Using this radiolabelled material an assay for cortisol was set up as described in Example 1. Transcortin from rabbit serum was used as the source of binding protein and Sephadex G25 was used to separate protein free and bound material.
# Typical results obtained using standard solutions of unlabelled cortisol to displace the labelled Δ^1 -corticosterone diselenide are: […]
# [6] = molecular target: T1, transcortin (charcoal treated rabbit serum); test: Assay for cortisol using Se-75 labelled bis-2,2'-(21-acetoxy-1-dehydrocortisol)-diselenide (competitive protein binding, Sephadex G25 separation); conditions: 2.3 ng label, 1 ml supernatant
# Description: as §1
# [7] = molecular target: T1, transcortin (charcoal treated rabbit serum); test: Assay for cortisol - the use of β-mercaptoethanol in situ, tubes stored before use; type: binding
# Description: as §1
# Bis-2,2'-(21-acetoxy-1-dehydrocortisol)-diselenide-Se75 (100ng) in ethanol (10 ul) was added with stirring to a solution of β-mercaptoethanol (20 μl) in 0.05M phosphate buffer (pH 7.4; 1 ml). The mixture was left at room temperature for 20 minutes and then was added to a solution of 0.05M phosphate buffer (pH 7.4; 480 ml) containing sodium azide (1%) and charcoal treated rabbit serum (2 ml). After thorough mixing this solution was dispensed (in 6 ml aliquots) into glass assay tubes each containing Sephadex G25 (1 g). The tubes were capped and stored at room temperature until required, when the assay was then carried out as described above.
structure (smiles),measurement,setting,value
C[75Se]CCNC(=O)CON=C1C[C@@H]2[C@H](CC[C@]3(C)[C@@H](O)[C@H](O)C[C@@H]23)c2ccc(O)cc21 [2-(methylseleno)-ethylamine - Se 75 conjugate of estriol-6-carboxymethyloxime],% of total counts bound minus blanks,[1]; 0 ng estriol added,45.9%
same,% of total counts bound minus blanks,[1]; 1.5 ng estriol added,37.5%
same,% of total counts bound minus blanks,[1]; 3.1 ng estriol added,35.6%
same,% of total counts bound minus blanks,[1]; 6.3 ng estriol added,32.0%
same,% of total counts bound minus blanks,[1]; 12.5 ng estriol added,29.2%
same,% of total counts bound minus blanks,[1]; 25 ng estriol added,24.7%
C[75Se]C1=C[C@@]2(C)C(=CC1=O)CC[C@@H]1[C@@H]2[C@@H](O)C[C@@]2(C)[C@H]1CC[C@]2(O)C(=O)COC(C)=O [2-methylseleno-1-dehydrocortisol-21-acetate-Se75],Counts - BKG in 300 sec,[2]; cortisol standard 0 μg/100 ml,37447 and 37551
same,Counts - BKG in 300 sec,[2]; cortisol standard 2 μg/100 ml,36495 and 36981
same,Counts - BKG in 300 sec,[2]; cortisol standard 4 μg/100 ml,35381 and 34565
same,Counts - BKG in 300 sec,[2]; cortisol standard 8 μg/100 ml,31090 and 32353
same,Counts - BKG in 300 sec,[2]; cortisol standard 16 μg/100 ml,28011 and 28180
same,Counts - BKG in 300 sec,[2]; cortisol standard 32 μg/100 ml,24135 and 24340
same,Counts - BKG in 300 sec,[2]; cortisol standard 64 μg/100 ml,21601 and 21777
same,dose-response curve of the cortisol assay,[2]; methylseleno- compared with the diseleno- derivative as label,steeper dose-response curve
C[75Se]C1=C[C@@]2(C)C(=CC1=O)CC[C@H]1[C@@H]3CC[C@H](O)[C@@]3(C)CC[C@@H]12 [2-methylseleno-1-dehydrotestosterone],antiserum dilution curves compared with tritiated testosterone as label,[3],identical to those obtained when tritiated testosterone was used as label
same,% Bound,[3]; antiserum dilution 1/10^2,85%
same,% Bound,[3]; antiserum dilution 1/10^3,80%
same,% Bound,[3]; antiserum dilution 1/10^4,45%
same,% Bound,[3]; antiserum dilution 1/10^5,18%
same,% Bound,[3]; antiserum dilution 1/10^6,13%
C[75Se]C1CC[C@@]2(C)[C@H](CC[C@@H]3[C@@H]2C[C@@H](O)[C@]2(C)[C@@H](C4=CC(=O)OC4)CC[C@]32O)C1 (some centres unmarked) [3-methylselenodigoxigenin-Se 75],% of Total Counts Bound,[4]; antiserum 1/50 dilution,97.0%
same,Mean Count,[4]; antiserum 1/50 dilution,20750
same,% of Total Counts Bound,[4]; antiserum 1/100 dilution,80.6%
same,Mean Count,[4]; antiserum 1/100 dilution,17224
same,% of Total Counts Bound,[4]; antiserum 1/200 dilution,44.3%
same,Mean Count,[4]; antiserum 1/200 dilution,9489
same,% of Total Counts Bound,[4]; antiserum 1/400 dilution,26.8%
same,Mean Count,[4]; antiserum 1/400 dilution,5744
same,% of Total Counts Bound,[4]; antiserum 1/500 dilution,21.8%
same,Mean Count,[4]; antiserum 1/500 dilution,4659
same,% of Total Counts Bound,[4]; antiserum 1/800 dilution,15.3%
same,Mean Count,[4]; antiserum 1/800 dilution,3277
same,% of Total Counts Bound,[4]; antiserum 1/1000 dilution,12.2%
same,Mean Count,[4]; antiserum 1/1000 dilution,2602
"C[C@]12C[C@H](O)[C@H]3[C@@H](CCC4=CC(=O)C([75Se][75Se]C5=C[C@@]6(C)C(=CC5=O)CC[C@@H]5[C@@H]6[C@@H](O)C[C@]6(C)[C@@H](C(=O)CO)CC[C@@H]56)=C[C@@]43C)[C@@H]1CC[C@@H]2C(=O)CO [bis-2,2'-(1-dehydrocorticosterone)-diselenide]",Counts - Bkgd,[5]; cortisol standard 2 μg/100 ml,24700
same,Counts - Bkgd,[5]; cortisol standard 4 μg/100 ml,24100
same,Counts - Bkgd,[5]; cortisol standard 8 μg/100 ml,22800
same,Counts - Bkgd,[5]; cortisol standard 16 μg/100 ml,21800
same,Counts - Bkgd,[5]; cortisol standard 32 μg/100 ml,21200
same,Counts - Bkgd,[5]; cortisol standard 64 μg/100 ml,20700
"CC(=O)OCC(=O)[C@@]1(O)CC[C@H]2[C@@H]3CCC4=CC(=O)C([75Se][75Se]C5=C[C@@]6(C)C(=CC5=O)CC[C@@H]5[C@@H]6[C@@H](O)C[C@@]6(C)[C@H]5CC[C@]6(O)C(=O)COC(C)=O)=C[C@]4(C)[C@H]3[C@@H](O)C[C@@]21C [bis-2,2'-(21-acetoxy-1-dehydrocortisol)-diselenide-Se 75]",Counts - Rkgd in 300 sec,[6]; cortisol standard 0 μg/100 ml,34672 and 33573
same,Counts - Rkgd in 300 sec,[6]; cortisol standard 2 μg/100 ml,31116 and 32296
same,Counts - Rkgd in 300 sec,[6]; cortisol standard 4 μg/100 ml,31129 and 31389
same,Counts - Rkgd in 300 sec,[6]; cortisol standard 8 μg/100 ml,29987 and 30954
same,Counts - Rkgd in 300 sec,[6]; cortisol standard 16 μg/100 ml,29141 and 29356
same,Counts - Rkgd in 300 sec,[6]; cortisol standard 32 μg/100 ml,26842 and 25739
same,Counts - Rkgd in 300 sec,[6]; cortisol standard 64 μg/100 ml,23746 and 25895
same,Counts per 100 seconds (corrected for background),"[7]; cortisol standard 2 μg/100 ml, storage time 1 day",12814 and 13112
same,Counts per 100 seconds (corrected for background),"[7]; cortisol standard 2 μg/100 ml, storage time 28 days",13007 and 12356
same,Counts per 100 seconds (corrected for background),"[7]; cortisol standard 4 μg/100 ml, storage time 1 day",13012
same,Counts per 100 seconds (corrected for background),"[7]; cortisol standard 4 μg/100 ml, storage time 28 days",11884
same,Counts per 100 seconds (corrected for background),"[7]; cortisol standard 8 μg/100 ml, storage time 1 day",12754 and 12709
same,Counts per 100 seconds (corrected for background),"[7]; cortisol standard 8 μg/100 ml, storage time 28 days",11486 and 11624
same,Counts per 100 seconds (corrected for background),"[7]; cortisol standard 16 μg/100 ml, storage time 1 day",11980 and 11825
same,Counts per 100 seconds (corrected for background),"[7]; cortisol standard 16 μg/100 ml, storage time 28 days",10930 and 10467
same,Counts per 100 seconds (corrected for background),"[7]; cortisol standard 32 μg/100 ml, storage time 1 day",10988 and 10876
same,Counts per 100 seconds (corrected for background),"[7]; cortisol standard 32 μg/100 ml, storage time 28 days",10078 and 10365
same,Counts per 100 seconds (corrected for background),"[7]; cortisol standard 64 μg/100 ml, storage time 1 day",9636
same,Counts per 100 seconds (corrected for background),"[7]; cortisol standard 64 μg/100 ml, storage time 28 days",9967
